Experimental findings from ChEMBL document CHEMBL4177685, “Ionic liquid mediated stereoselective synthesis of alanine linked hybrid quinazoline-4(3H)-one derivatives perturbing the malarial reductase activity in folate pathway” (Bioorg Med Chem, 2017) are described below.

The structures appear in SMILES notation. pIC50: −log10 of the molar value. Values after ≈ are worked out from the molar mass of the structure shown.

The test system of data set [1] is Plasmodium falciparum. Nature of the data set: Antimalarial activity against Plasmodium falciparum in infected in human RBC. Format: functional, organism-based. As to conditions: Erythrocyte.
Data set [2] has as its system bovine liver DHFR. As to the kind of experiment: Selectivity index, ratio of IC50 for African green monkey Vero cells to IC50 for bovine liver DHFR. It is filed as toxicity. To be noted: read-out: Ratio IC50.
In data set [3] the target is T1, Dihydrofolate reductase (Bos taurus, UniProt P00376).
T1 sequence (P00376 whole entry): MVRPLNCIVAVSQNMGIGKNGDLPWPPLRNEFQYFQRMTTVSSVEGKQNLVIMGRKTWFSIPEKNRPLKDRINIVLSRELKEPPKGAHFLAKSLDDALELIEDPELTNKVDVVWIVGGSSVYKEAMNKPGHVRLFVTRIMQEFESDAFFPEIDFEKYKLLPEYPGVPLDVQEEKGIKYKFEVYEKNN
As to the kind of experiment: Inhibition of bovine liver DHFR using FH2 as substrate preincubated for 2 mins followed by substrate addition.

For data set [4], the system named is Vero. As to the kind of experiment: Cytotoxicity against African green monkey Vero cells up to 15 ug/ml after 72 hrs by MTT assay. It is filed as cell-based. As to conditions: chlorocebus sabaeus.

On to `CC(=O)Nc1ccc(S(=O)(=O)NC(C)c2nc3ccccc3c(=O)n2/N=C/c2ccc(C)cc2)cc1` (stereo not given), for which the IC50 (commonly the concentration that gives 50% inhibition) in data set [1] worked out at 0.068 µg/mL (≈ 0.135 µM). For the same molecule, the selectivity ratio in data set [2] was found to be 181. The pIC50 (commonly the IC50 on a negative log10 scale, so that one unit is a factor of ten) in data set [3] is 6.78. In addition, the Activity result in data set [4] is given as “Non-Toxic”.

The molecule `CC(=O)Nc1ccc(S(=O)(=O)NC(C)c2nc3ccccc3c(=O)n2/N=C/c2cccc(C)c2)cc1` (stereo not given) yielded an IC50 in data set [1] of 0.72 µg/mL (≈ 1.43 µM). The same measure, in the same setting: then `COc1ccccc1/C=N/n1c(C(C)NS(=O)(=O)c2ccc(NC(C)=O)cc2)nc2ccccc2c1=O` (stereo not given), with 0.78 µg/mL (≈ 1.5 µM). Molecule `COc1cccc(/C=N/n2c(C(C)NS(=O)(=O)c3ccc(NC(C)=O)cc3)nc3ccccc3c2=O)c1` (stereo not given) had an IC50 in data set [1] of 1.02 µg/mL (≈ 1.97 µM). Still for that read-out and setting: then `CC(=O)Nc1ccc(S(=O)(=O)NC(C)c2nc3ccccc3c(=O)n2/N=C/c2cccc(Cl)c2)cc1` (stereo not given), with 1.01 µg/mL (≈ 1.93 µM); and `CC(=O)Nc1ccc(S(=O)(=O)NC(C)c2nc3ccccc3c(=O)n2/N=C/c2ccccc2)cc1` (stereo not given), with 1.1 µg/mL (≈ 2.25 µM); and `CC(=O)Nc1ccc(S(=O)(=O)NC(C)c2nc3ccccc3c(=O)n2/N=C/c2ccccc2Cl)cc1` (stereo not given), with 1.05 µg/mL (≈ 2.01 µM). The molecule `CC(=O)Nc1ccc(S(=O)(=O)NC(C)c2nc3ccccc3c(=O)n2/N=C/c2cccc(O)c2)cc1` (stereo not given) had an IC50 in data set [1] of 1.01 µg/mL (≈ 2 µM). The same measure, in the same setting: to `CC(=O)Nc1ccc(S(=O)(=O)NC(C)c2nc3ccccc3c(=O)n2/N=C/c2ccc(O)cc2)cc1` (stereo not given) belongs 0.72 µg/mL (≈ 1.42 µM); to `CC(=O)Nc1ccc(S(=O)(=O)NC(C)c2nc3ccccc3c(=O)n2/N=C/c2ccccc2Br)cc1` (stereo not given), 0.78 µg/mL (≈ 1.37 µM). Regarding `CC(=O)Nc1ccc(S(=O)(=O)NC(C)c2nc3ccccc3c(=O)n2/N=C/c2ccc(Cl)cc2)cc1` (stereo not given), the IC50 in data set [1] was found to be 0.72 µg/mL (≈ 1.37 µM). Take `CC(=O)Nc1ccc(S(=O)(=O)NC(C)c2nc3ccccc3c(=O)n2/N=C/c2ccc([N+](=O)[O-])cc2)cc1` (stereo not given): it took 0.084 µg/mL (≈ 0.157 µM) to reach half-maximal inhibition in data set [1] (IC50). Further, the selectivity ratio in data set [2] turned out to be 341. For the same molecule, the pIC50 in data set [3] is 7.08. In data set [4], the Activity result was “Non-Toxic”. The molecule `CC(=O)Nc1ccc(S(=O)(=O)NC(C)c2nc3ccccc3c(=O)n2/N=C/c2ccccc2O)cc1` (stereo not given) yielded an IC50 in data set [1] of 1.05 µg/mL (≈ 2.08 µM). Same read-out and setting: then `CC(=O)Nc1ccc(S(=O)(=O)NC(C)c2nc3ccccc3c(=O)n2/N=C/c2ccc(Br)cc2)cc1` (stereo not given), with 0.67 µg/mL (≈ 1.18 µM). For `CC(=O)Nc1ccc(S(=O)(=O)NC(C)c2nc3ccccc3c(=O)n2/N=C/c2ccc(F)cc2)cc1` (stereo not given), the IC50 in data set [1] was determined as 0.084 µg/mL (≈ 0.166 µM). Moreover, the selectivity ratio in data set [2] was determined as 441. The negative-log IC50 (pIC50) in data set [3] was 7.17. Further, the Activity result in data set [4] was “Non-Toxic”.

In data set [1], `CC(=O)Nc1ccc(S(=O)(=O)NC(C)c2nc3ccccc3c(=O)n2/N=C/c2ccccc2C)cc1` (stereo not given) had an IC50 of 1.28 µg/mL (≈ 2.54 µM).

Molecule `CC(=O)Nc1ccc(S(=O)(=O)NC(C)c2nc3ccccc3c(=O)n2/N=C/c2cccc(Br)c2)cc1` (stereo not given) yielded an IC50 in data set [1] of 1.02 µg/mL (≈ 1.8 µM). `CC(=O)Nc1ccc(S(=O)(=O)NC(C)c2nc3ccccc3c(=O)n2/N=C/c2ccccc2[N+](=O)[O-])cc1` (stereo not given) yielded an IC50 in data set [1] of 0.7 µg/mL (≈ 1.31 µM). Take `CC(=O)Nc1ccc(S(=O)(=O)NC(C)c2nc3ccccc3c(=O)n2/N=C/c2cccc(F)c2)cc1` (stereo not given): the IC50 in data set [1] came out at 0.092 µg/mL (≈ 0.181 µM). Moreover, the selectivity ratio in data set [2] was determined as 556. Moreover, the pIC50 in data set [3] was 7.27. Also, the Activity entry in data set [4] is reported as “Non-Toxic”. On the same counts, the results for `CC(=O)Nc1ccc(S(=O)(=O)NC(C)c2nc3ccccc3c(=O)n2/N=C/c2cccc([N+](=O)[O-])c2)cc1` (stereo not given) are 0.092 µg/mL (≈ 0.172 µM), 283, 7.00 and “Non-Toxic”. In data set [1], `COc1ccc(/C=N/n2c(C(C)NS(=O)(=O)c3ccc(NC(C)=O)cc3)nc3ccccc3c2=O)cc1` (stereo not given) yielded a half-inhibitory concentration (IC50) of 0.67 µg/mL (≈ 1.29 µM). Regarding `CC(=O)Nc1ccc(S(=O)(=O)NC(C)c2nc3ccccc3c(=O)n2/N=C/c2ccccc2F)cc1` (stereo not given), the half-maximal inhibitory concentration (IC50) in data set [1] stood at 0.7 µg/mL (≈ 1.38 µM). The same measure, in the same setting: then `CCc1nc(N)nc(N)c1-c1ccc(Cl)cc1` [PYRIMETHAMINE], with 0.25 µg/mL (≈ 1.01 µM); and `C=C[C@H]1CN2CC[C@H]1C[C@H]2[C@H](O)c1ccnc2ccc(OC)cc12` [QUININE], with 0.268 µg/mL (≈ 0.826 µM). The same measure, in the same setting: then `COc1cc(Cc2cnc(N)nc2N)cc(OC)c1OC` [TRIMETHOPRIM], with 0.38 µg/mL (≈ 1.31 µM).
